According to article PMC3276683 (Bioorganic & medicinal chemistry, 2012):
Like-named read-outs stand apart in the source and are kept apart here.

Legend:
[1] = system: Plasmodium falciparum (strain K1, IEF stage); type: cell-based; details: L6 IC50 versus P. falciparum IC50
[2] = system: American Trypanosoma cruzi blood trypomastigotes; details: in words; cited from earlier work
[3] = system: Leishmania donovani; details: cited from earlier work
[4] = system: Trypanosoma brucei rhodesiense (strain STIB 900, trypomastigote stage); assay: Growth inhibition of T. b. rhodesiense STIB900 trypomastigote forms; type: cell-based

## COC1=CC(=O)O[C@]2(/C=C/c3ccc(C(C)(C)C)cc3)[C@H]1[C@H](c1ccc(C(C)(C)C)cc1)[C@H]2c1cc(OC)cc(=O)o1 (racemic) [compound 33, 12,12′-Di-tert-butyl-aniba-dimer-A]
[1]
  SI Pf. (selectivity index for Plasmodium falciparum against L6): ~80

## COc1cc(/C=C/c2ccc(OC)c(OC)c2)oc(=O)c1 [compound 3, 6-[2-(3,4-Dimethoxyphenyl)ethenyl]-4-methoxy-2H-pyran-2-one]
[2]
  activity against T. cruzi blood trypomastigotes: weak activity

## CCCCCCc1c(OC)cc(CCCCC)oc1=O [compound 10]
[3]
  IC50: similarly active

## Nc1nc(N)nc(Nc2ccc([As]3SCC(CO)S3)cc2)n1 (centres unmarked) [melarsoprol]
[4]; RHODESIENSE|STIB900
  IC50: 4 ng/mL
[4]; RHODESIENSE|STIB900, read-out: T.b.rhod. IC50
  IC50: 10 nM
